Test results taken from US8178688B2, “Benzamidine derivatives, process for the preparation thereof and pharmaceutical composition comprising the same” (Dong Wha Pharmaceutical Co., Ltd., priority 2004, dated 2012).
Marks after values point to notes of the source that are not given here.

Experiments:
[1] = tested on: osteoclast differentiation; experiment: Inhibitory effects on osteoclast differentiation (co-culture of bone marrow cells with osteoblast, TRAP staining); format: cell-based, mice; details: Mus musculus, Osteoclast, 168 h; 1 m; co-culture of bone marrow cells and osteoblast, 7 days, TRAP-positive osteoclasts versus controls; read-out: % inhibitory activity on osteoclastogenesis
Method in brief: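 Bone marrow cells from 6–8-week male ddY mice co-cultured with neonatal ICR mouse calvarial osteoblasts in α-MEM/FBS with dexamethasone (10^−7M) and vitamin D3 (10^−8M) for 7 days, compound and medium renewed every 2–3 days. TRAP-positive cells with ≥3 nuclei counted; inhibition given as percent of control.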

[2] = tested on: rat models subjected to rib fracture; experiment: Effect of promoting fracture healing in rib fracture-induced rat model (callus volume, callus osteoid volume); format: in vivo, SD rats
Procedure: The benzamidine compounds were assayed for therapeutic effect on bone fracture in rat models subjected to rib fracture. Benzamidine derivates are dosed from 2 days after operation for 2 weeks, and the changes on the volume and histology of callus were observed.
A total of 54 SD rats (8 weeks old upon receipt, Jung Ang Lab. Animal Co., Korea) were used. While being housed at a density of three to a plastic cage, the experimental animals were kept in a breeding room under controlled temperature (20-25° C.) and humidity (30-35%). Under light-dark cycles of 12 hours, the rats were allowed to have free access to feedstuff and tap water.
200 mg of benzamidine compounds (Methansulfonic acid or Hydrochloride) were completely dissolved in 5 ml of sterilized distilled water. The benzamidine derivatives in the solutions was orally administered at doses of 200 mg per kg of body weight once a day for 2 weeks from day 2 of the surgery.
8th and 9th rib of each animal was exposed by general operation under ketamine HCl and xylazine HCl anesthesia, and the exposed ribs were crossly dissected using surgical scissors. After rib-fracture, surgical wounds were closed with general skin suture.
8th and 9th ribs of each animal were separated at sacrifice and then the long axis and short axis of callus were calculated as mm units. The volume of callus was calculated as following Equation 2. Callus volume(mm^3)=(a×b^2)/2 Equation 2 • a: long diameter of bony callus • b: short diameter of bony callus
The 8th rib including fracture sites of each rat was separated and fixed in 10% neutral buffered formalin, and then decalcified in decalcifying solution (24.4% formic acid, and 0.5N sodium hydroxide) for 5 days (mixed decalcifying solution was exchanges once a day for 5 days). After decalcification, the rib was embedded in paraffin, sectioned (3˜4 μm) and stained with hematoxylin-eosin or Masson's trichrome for composition of callus observation.
Osteloid volume (OV/callus) in callus regions of prepared histological specimens were detected as % levels using automated image analysis (analySIS Image Processing; SIS, Germany) under microscopy.

[3] = tested on: mouse models of ovalbumin-induced asthma; experiment: Therapeutic effect in mouse model of asthma induced with ovalbumin (lung weight, total leukocytes in blood and BALF); format: in vivo, C57BL/6 mice
Procedure: The benzamidine compounds were assated for therapeutic effect on allergic inflammation in mouse models of ovalbumin-induced asthma. Starting on the day of immunization the benzamidine compounds were dosed for 17 consecutive days. The experimental animals were re-exposed to ovalbumin 14 days after the sensitization and then sacrificed 3 days after the re-exposure. Changes in lung weight, cellular components of peripheral blood and bronchoalveolar lavage fluid, and lung histopathology were observed.
A total of 110 female C57BL/6 mice (7-week-old, SLC, Japan) were adapted to a laboratory environment for 6 days before being used in earnest experiments. While being housed at a densirt of five in a plastic cage, the experimental animals were breed in a breeding room with controlled temperature (20-25° C.) and humidity (30-35%). Under light-dark cycles of 12 hours, mice were allowed to have free access to feedstuff and tap water. While asthma was induced in 100 mice by ovalbumin, 10 mice were used as a non-treated group.
200 mg of benzamidine compounds (Methansulfonic acid or Hydrochloride) were completely dissolved in 5 ml of sterilized distilled water. The benzamidine compound in the solutions was orally administered at doses of 200 mg per kg of body weight once a day from the day of the sensitization with ovalbumin. The control group was administered with equal volumes of sterilized distilled water in the same manner.
A solution of 200 μg of ovalbumin (Grade VI; Sigma, st. Louis, Mo., USA) and 180 mg of aluminium hydroxide (Al(OH)3, dried powder gel; Aldrich, Milwaukee, USA) in 4 ml of physiological saline was allowed to stand at 4° C. overnight and was administered to the experimental animals (200 μl, abdominal injection) for sensitization. As for the non-treated group, a solution of only aluminium hydroxide in saline was injected. 15 days after sensitization, a 1.5% ovalbumin solution was sprayed in air using a nebulizer, followed by exposing the experimental animals to the spray for 10 min to induce asthma therein. The non-treated group was exposed only to saline in the same manner. All the experimental animals were sacrificed 3 days after the exposure.
On the final day of experiment, the lungs were separated form adjacent organs. The removed lungs were weight among individual animals, the relative weight of the lungs was calculated as a percentage of body weight using the following Equation 3. Relative weight of Lung(%)=(Absolute lung weight/Body weight)×100 Equation 3
On the final day of experiment, all the experimental animals were etherized and underwent laparotomy to expose the abdominal vena cava, from which 1 ml of blood was the taken. Using a hemocytometer, a blood sample was measured for total leukocyte counts in a ×10^3/1 mm^3 units.
On the final day of experiment, secretions present in bronchi and alveola were examined for cyrological constitution. After veing etherized, the experimental animals were operated to open the cervical region and the thorax. The jugular vein was allowed to bleed, followed by endotracheal intubation. 3 ml of phosphate buffered saline was injected twice through the tube and the thorax was massaged for 30 sec to obtain cell suspension from the lungs. Using a hemocytometer, a […] was measured for total leukocyte counts in a ×10^5/1 ml units.

For CNc1nc(-c2ccc(OCCCCCOc3ccc(C(=N)NO)cc3)cc2)c(CCCl)s1 [Example 115, N-hydroxy-4-(5-[4-(5-(2-chloroethyl)-2-methylamino-1,3-thiazol-4-yl)phenoxy]pentoxy)-benzamidine], the inhibition at 1 µM [1] was 96%, the “Changes on callus volume (mm^3)” value ([2]; 200 mg/kg oral once a day for 2 weeks from day 2 of surgery, 8th and 9th ribs, vehicle control 37.22 ± 8.23) was 24.06 ± 9.64* mm^3 and the “Changes on callus osteoid volume (OV/callus, %)” value ([2]; 200 mg/kg oral once a day for 2 weeks, 8th rib, vehicle control 35.88 ± 5.06) was 41.94 ± 6.33%. For the same compound, the “Changes on the lung weight, Absolute” value ([3]; 200 mg/kg oral once a day from sensitization, vehicle control 0.134 ± 0.012, sham 0.110 ± 0.009) was 0.114 ± 0.009 g and the “Changes on the lung weight, Relative (%)” value ([3]; 200 mg/kg oral once a day, % of body weight, vehicle control 0.780 ± 0.103, sham 0.694 ± 0.049) was 0.705 ± 0.046%.
